Where a name gives a salt, the structure may show the parent alone.

The target of this assay is T1, human P2Y12 receptor (Homo sapiens, UniProt Q9H244).
T1 construct: expressed in transfected cells; host or cells: CHO cells
T1 sequence (Q9H244 whole entry): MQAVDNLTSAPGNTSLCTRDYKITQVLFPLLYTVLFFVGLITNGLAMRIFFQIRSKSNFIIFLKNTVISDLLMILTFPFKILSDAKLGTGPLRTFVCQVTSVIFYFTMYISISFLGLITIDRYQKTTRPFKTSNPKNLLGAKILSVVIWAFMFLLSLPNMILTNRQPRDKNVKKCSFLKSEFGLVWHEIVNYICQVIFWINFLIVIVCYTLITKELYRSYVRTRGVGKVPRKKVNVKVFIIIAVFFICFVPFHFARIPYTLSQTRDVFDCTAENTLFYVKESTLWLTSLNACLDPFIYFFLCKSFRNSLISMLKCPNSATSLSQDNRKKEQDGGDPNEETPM
Nature of the assay: P2Y12 receptor binding assay. To be noted: CHO cells with recombinant expression of the human P2Y12 receptor; tritium-labeled 2-methyl-S-ADP; RT, 2 hours. Here is the method: P2Y12 Receptor Binding Assay
Chinese Hamster Ovary (CHO) cells with recombinant expression of the human P2Y12 receptor were cultured in 24 well cell-culture plates. Cells were washed three times with binding buffer (50 mM Tris pH 7.4, 100 mM NaCl, 1 mM EDTA, 0.5% BSA). The cells were then incubated with 0.5 ml per well binding buffer containing tritium-labeled 2-methyl-thio-adenosine 5′-diphosphate (2-methyl-S-ADP) (between 100′000 and 300′000 dpm per well) and various concentrations of test compounds. After incubation at RT for 2 hours, cells were washed three times with binding buffer. Then, cells were solubilized by addition of 0.5 ml solubilization buffer (SDS, NaOH, EDTA). The content of each well was then transferred into beta-counter vials and 2.0 ml of Ultima Gold Scintillation liquid was added.
As to `CCCCOC(=O)N1CCN(C(=O)CNC(=O)c2nc(-c3ccccc3)sc2-c2cccc(F)c2)CC1` [Example 29, 4-(2-{[5-(3-Fluoro-phenyl)-2-phenyl-thiazole-4-carbonyl]-amino}-acetyl)-piperazine-1-carboxylic acid butyl ester], the IC50 came out at 0.525 µM.

Take `CCCCOC(=O)N1CCN(C(=O)CNC(=O)c2nc(-c3ccccc3)sc2/C=C/C(=O)OCC)CC1` [Example 30, 4-(2-{[5-((E)-2-Ethoxycarbonyl-vinyl)-2-phenyl-thiazole-4-carbonyl]-amino}-acetyl)-piperazine-1-carboxylic acid butyl ester]: the IC50 was 0.268 µM. Then `CCCCOC(=O)N1CCN(C(=O)CNC(=O)c2nc(-c3ccccc3)sc2/C=C/C(=O)O)CC1` [Example 31, 4-(2-{[5-((E)-2-Carboxy-vinyl)-2-phenyl-thiazole-4-carbonyl]-amino}-acetyl)-piperazine-1-carboxylic acid butyl ester], with 0.019 µM; and `CCCCOC(=O)N1CCN(C(=O)CNC(=O)c2nc(-c3ccccc3)sc2CCC(=O)OCC)CC1` [Example 32, 4-(2-{[5-(2-Ethoxycarbonyl-ethyl)-2-phenyl-thiazole-4-carbonyl]-amino}-acetyl)-piperazine-1-carboxylic acid butyl ester], with 0.157 µM. Then `CCCCOC(=O)N1CCN(C(=O)CNC(=O)c2nc(-c3ccccc3)sc2CCC(=O)O)CC1` [Example 33, 4-(2-{[5-(2-Carboxy-ethyl)-2-phenyl-thiazole-4-carbonyl]-amino}-acetyl)-piperazine-1-carboxylic acid butyl ester], with 0.031 µM. The result for `CCCCOC(=O)N1CCN(C(=O)CNC(=O)c2nc(-c3ccccc3)sc2C=CCOC)CC1` [Example 34, 4-(2-{[5-(3-Methoxy-propenyl)-2-phenyl-thiazole-4-carbonyl]-amino}-acetyl)-piperazine-1-carboxylic acid butyl ester] reads 0.085 µM. Turning to `CCCCOC(=O)N1CCN(C(=O)CNC(=O)c2nc(-c3ccccc3)sc2CCCOC)CC1` [Example 35, 4-(2-{[5-(3-Methoxy-propyl)-2-phenyl-thiazole-4-carbonyl]-amino}-acetyl)-piperazine-1-carboxylic acid butyl ester], the IC50 came to 0.099 µM. The result for `CCCCOC(=O)N1CCN(C(=O)[C@@H](NC(=O)c2csc(-c3ccccc3)n2)C(C)C)CC1` [Example 36, 4-{(S)-3-Methyl-2-[(2-phenyl-thiazole-4-carbonyl)-amino]-butyryl}-piperazine-1-carboxylic acid butyl ester] reads 0.104 µM; that for `CCCCOC(=O)N1CCN(C(=O)[C@H](CO)NC(=O)c2nc(-c3ccccc3)sc2Br)CC1` [Example 37, 4-{(S)-2-[(5-Bromo-2-phenyl-thiazole-4-carbonyl)-amino]-3-hydroxy-propionyl}-piperazine-1-carboxylic acid butyl ester], 0.696 µM. Then `CCCCOC(=O)N1CCN(C(=O)[C@H](CO)NC(=O)c2csc(-c3ccccc3)n2)CC1` [Example 38, 4-{(S)-3-Hydroxy-2-[(2-phenyl-thiazole-4-carbonyl)-amino]-propionyl}-piperazine-1-carboxylic acid butyl ester], with 0.071 µM; and `CCCCOC(=O)N1CCN(C(=O)[C@H](CO)NC(=O)c2nc(-c3ccccc3)sc2/C=C/C(=O)O)CC1` [Example 39, 4-((S)-2-{[5-((E)-2-Carboxy-vinyl)-2-phenyl-thiazole-4-carbonyl]-amino}-3-hydroxy-propionyl)-piperazine-1-carboxylic acid butyl ester], with 0.035 µM; and `CCCCOC(=O)N1CCN(C(=O)[C@H](CO)NC(=O)c2nc(-c3ccccc3)sc2CCC(=O)O)CC1` [Example 40, 4-((S)-2-{[5-(2-Carboxy-ethyl)-2-phenyl-thiazole-4-carbonyl]-amino}-3-hydroxy-propionyl)-piperazine-1-carboxylic acid butyl ester], with 0.043 µM. With `CCCCOC(=O)N1CCN(C(=O)[C@H](CP(=O)(O)O)NC(=O)c2csc(-c3ccc(F)cc3)n2)CC1` [Example 41, 4-((R)-2-{[2-(4-Fluoro-phenyl)-thiazole-4-carbonyl]-amino}-3-phosphono-propionyl)-piperazine-1-carboxylic acid butyl ester], the half-inhibitory concentration (IC50) was 0.006 µM.

For `CCCCOC(=O)N1CCN(C(=O)[C@H](CP(=O)(OCC)OCC)NC(=O)c2nc(-c3ccccc3)sc2-c2ccccc2)CC1` [Example 42, 4-{(R)-3-(Diethoxy-phosphoryl)-2-[(2,5-diphenyl-thiazole-4-carbonyl)-amino]-propionyl}-piperazine-1-carboxylic acid butyl ester], the IC50 came to 2.19 µM. The result for `CCCCOC(=O)N1CCN(C(=O)[C@H](CP(=O)(O)O)NC(=O)c2nc(-c3ccccc3)sc2-c2ccccc2)CC1` [Example 43, 4-{(R)-2-[(2,5-Diphenyl-thiazole-4-carbonyl)-amino]-3-phosphono-propionyl}-piperazine-1-carboxylic acid butyl ester] reads 0.013 µM.

As for `CCCCOC(=O)N1CCN(C(=O)[C@H](CP(=O)(OCC)OCC)NC(=O)c2nc(-c3ccccc3)sc2N2CCN(C)CC2)CC1` [Example 44, 4-((R)-3-(Diethoxy-phosphoryl)-2-{[5-(4-methyl-piperazin-1-yl)-2-phenyl-thiazole-4-carbonyl]-amino}-propionyl)-piperazine-1-carboxylic acid butyl ester], the IC50 stood at 4.18 µM. As for `CCCCOC(=O)N1CCN(C(=O)[C@H](CP(=O)(O)O)NC(=O)c2nc(-c3ccccc3)sc2N2CCN(C)CC2)CC1` [Example 45, 4-((R)-2-{[5-(4-Methyl-piperazin-1-yl)-2-phenyl-thiazole-4-carbonyl]-amino}-3-phosphono-propionyl)-piperazine-1-carboxylic acid butyl ester; hydrochloride], the IC50 was found to be 0.003 µM. The result for `CCCCOC(=O)N1CCN(C(=O)[C@H](CP(=O)(OCC)OCC)NC(=O)c2nc(-c3ccccc3)sc2N(C)CCCC)CC1` [Example 46, 4-[(R)-2-{[5-(Butyl-methyl-amino)-2-phenyl-thiazole-4-carbonyl]-amino}-3-(diethoxy-phosphoryl)-propionyl]-piperazine-1-carboxylic acid butyl ester] reads 0.821 µM; that for `CCCCOC(=O)N1CCN(C(=O)[C@H](CP(=O)(O)O)NC(=O)c2nc(-c3ccccc3)sc2N(C)CCCC)CC1` [Example 47, 4-((R)-2-{[5-(Butyl-methyl-amino)-2-phenyl-thiazole-4-carbonyl]-amino}-3-phosphono-propionyl)-piperazine-1-carboxylic acid butyl ester], 0.003 µM; that for `CCCCOC(=O)N1CCN(C(=O)[C@H](CP(=O)(O)O)NC(=O)c2nc(-c3ccccc3)c(Br)s2)CC1` [Example 48, 4-{(R)-2-[(5-Bromo-4-phenyl-thiazole-2-carbonyl)-amino]-3-phosphono-propionyl}-piperazine-1-carboxylic acid butyl ester], 0.006 µM. For `CCCCOC(=O)N1CCN(C(=O)[C@H](CP(=O)(O)O)NC(=O)c2nc(-c3ccccc3)c(-c3ccccc3)s2)CC1` [Example 49, 4-{(R)-2-[(4,5-Diphenyl-thiazole-2-carbonyl)-amino]-3-phosphono-propionyl}-piperazine-1-carboxylic acid butyl ester], the concentration for half-maximal inhibition (IC50) stood at 0.152 µM. The result for `CCCCOC(=O)N1CCN(C(=O)CNC(=O)c2nc(-c3ccccc3)c(-c3ccccc3)s2)CC1` [Example 50, 4-{2-[(4,5-Diphenyl-thiazole-2-carbonyl)-amino]-acetyl}-piperazine-1-carboxylic acid butyl ester] reads 1.16 µM; that for `CCCCOC(=O)N1CCN(C(=O)CNC(=O)c2nc(-c3ccccc3)c(/C=C/COC)s2)CC1` [Example 51, 4-(2-{[5-((E)-3-Methoxy-propenyl)-4-phenyl-thiazole-2-carbonyl]-amino}-acetyl)-piperazine-1-carboxylic acid butyl ester], 0.38 µM. For the compound `CCCCOC(=O)N1CCN(C(=O)CNC(=O)c2nc(-c3ccccc3)c(CCCOC)s2)CC1` [Example 52, 4-(2-{[5-(3-Methoxy-propyl)-4-phenyl-thiazole-2-carbonyl]-amino}-acetyl)-piperazine-1-carboxylic acid butyl ester], the IC50 was determined as 0.743 µM.

Consider `CCCCOC(=O)N1CCN(C(=O)CNC(=O)c2nc(-c3ccccc3)c(/C=C/C(=O)OCC)s2)CC1` [Example 53, 4-(2-{[5-((E)-2-Ethoxycarbonyl-vinyl)-4-phenyl-thiazole-2-carbonyl]-amino}-acetyl)-piperazine-1-carboxylic acid butyl ester], for which the IC50 amounted to 0.513 µM. The result for `CCCCOC(=O)N1CCN(C(=O)CNC(=O)c2nc(-c3ccccc3)c(CCC(=O)OC)s2)CC1` [Example 54, 4-(2-{[5-(2-Methoxycarbonyl-ethyl)-4-phenyl-thiazole-2-carbonyl]-amino}-acetyl)-piperazine-1-carboxylic acid butyl ester] reads 0.547 µM. As to `CCCCOC(=O)N1CCN(C(=O)CNC(=O)c2nc(-c3ccccc3)c(CCC(=O)O)s2)CC1` [Example 55, 4-(2-{[5-(2-Carboxy-ethyl)-4-phenyl-thiazole-2-carbonyl]-amino}-acetyl)-piperazine-1-carboxylic acid butyl ester], the IC50 turned out to be 0.314 µM.

As to `CCCCOC(=O)N1CCN(C(=O)[C@H](CCC(=O)O)NC(=O)c2nc(-c3ccccc3)c(Br)s2)CC1` [Example 56, 4-{(S)-2-[(5-Bromo-4-phenyl-thiazole-2-carbonyl)-amino]-4-carboxy-butyryl}-piperazine-1-carboxylic acid butyl ester], the IC50 was 0.045 µM.

As a reminder, the IC50 is the concentration that gives 50% inhibition.

(Values after patent US8664203B2, “Thiazole derivatives and their use as P2Y12 receptor antagonists” (Actelion Pharmaceuticals Ltd., priority 2009, dated 2014).)
